In patent publication US20010039287A1, “AROMATIC SULFONE HYDROXAMIC ACID METALLOPROTEASE INHIBITOR” (priority 1997, published 2001):
Structures can show the parent of a compound that is named as a salt. Where two headings read alike, the source gives them in different places.

Experiments:
Assay in all cases: biochemical
recombinant human MMP-13 = recombinant human MMP-13 (Homo sapiens, UniProt P45452)
recombinant human MMP-2 = target: T1, recombinant human MMP-2 (Homo sapiens, UniProt P08253)
T1 sequence (P08253 110-660): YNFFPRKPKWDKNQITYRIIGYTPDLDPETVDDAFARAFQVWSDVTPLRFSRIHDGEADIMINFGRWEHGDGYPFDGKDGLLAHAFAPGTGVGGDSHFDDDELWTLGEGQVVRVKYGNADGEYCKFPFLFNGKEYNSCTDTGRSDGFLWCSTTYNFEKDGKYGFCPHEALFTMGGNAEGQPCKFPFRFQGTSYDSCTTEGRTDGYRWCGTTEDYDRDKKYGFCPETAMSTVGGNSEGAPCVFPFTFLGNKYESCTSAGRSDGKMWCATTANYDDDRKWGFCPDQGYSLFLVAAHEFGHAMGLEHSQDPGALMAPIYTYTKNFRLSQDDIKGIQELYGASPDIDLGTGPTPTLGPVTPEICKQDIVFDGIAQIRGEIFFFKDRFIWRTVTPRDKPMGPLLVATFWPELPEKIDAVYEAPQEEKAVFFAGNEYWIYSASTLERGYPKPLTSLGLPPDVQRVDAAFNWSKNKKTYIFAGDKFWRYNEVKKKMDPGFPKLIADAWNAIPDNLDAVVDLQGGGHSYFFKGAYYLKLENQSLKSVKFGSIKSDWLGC

recombinant human MMP-1 = target: T2, recombinant human MMP-1 (Homo sapiens, UniProt P03956); conditions: read-out: MMP-1 IC50
T2 construct: made in house; host or cells: transfected HT-1080 cells (provided by Dr. Harold Welgus, Washington University)
T2 sequence (P03956 100-469): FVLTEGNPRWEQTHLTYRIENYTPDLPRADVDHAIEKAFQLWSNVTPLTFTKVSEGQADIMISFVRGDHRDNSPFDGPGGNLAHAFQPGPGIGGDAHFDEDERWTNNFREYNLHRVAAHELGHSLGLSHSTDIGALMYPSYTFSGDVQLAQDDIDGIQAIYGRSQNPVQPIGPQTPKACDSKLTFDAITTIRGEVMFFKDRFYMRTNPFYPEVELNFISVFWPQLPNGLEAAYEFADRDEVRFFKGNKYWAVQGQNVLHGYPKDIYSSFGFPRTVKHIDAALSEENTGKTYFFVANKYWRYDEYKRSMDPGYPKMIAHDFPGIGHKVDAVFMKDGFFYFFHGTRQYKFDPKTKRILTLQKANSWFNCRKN

[1] = Inhibition Table A, read-out: MMP-13 IC50
[2] = Inhibition Table B, read-out: MMP-13 IC50
[3] = Inhibition Table B, read-out: MMP-2 IC50
[4] = Inhibition Table A, read-out: MMP-2 IC50

Compound	IC50 (recombinant human MMP-13; [2]) [µM]	IC50 (recombinant human MMP-2; [3]) [nM]	IC50 (recombinant human MMP-1; Inhibition Table B) [µM]	other results
O=C(NO)C1(S(=O)(=O)c2ccc(N3CCC(c4ccccc4)CC3)cc2)CCOCC1 [Example 11]				IC50 (recombinant human MMP-13; [1]): 0.006 µM; IC50 (recombinant human MMP-2; MMP-2 IC50 (nM)): 4.4 nM; IC50 (recombinant human MMP-1; Inhibition Table A): > 10 µM
O=C(CN1CCCC1)N1CCC(C(=O)NO)(S(=O)(=O)c2ccc(Oc3ccccc3)cc2)CC1 [Example 31, N-hydroxy-4-[(4-phenoxyphenyl)sulfonyl]-1-(1-pyrrolidinylacetyl)-4-piperidine Carboxamide, Monohydrochloride]	0.0002	< 0.1	0.37	
O=C(CS(=O)(=O)c1ccc(NC(=O)OCc2ccccc2)cc1)NO [Example 74, phenylmethyl-[4-[[2-(hydroxyamino)-2-oxoethyl]-sulfonyl]-phenyl]carbamate]	0.48	130	> 10	
O=C(NO)C1(S(=O)(=O)c2ccc(-c3cccc(C(F)(F)F)c3)cc2)CCOCC1 [Example 219]	< 0.001	< 1	> 10	
CC(C)NC(=O)N1CCC(C(=O)NO)(S(=O)(=O)c2ccc(Oc3ccc(Cl)cc3)cc2)CC1 [Example 90, 4-[[4-(4-chlorophenoxy)-phenyl]sulfonyl]-N^4-hydroxy-N^1-(1-methylethyl)-1,4-piperidine Dicarboxamide]	0.0001	0.1	1.2	
O=C(NO)C1(S(=O)(=O)c2ccc(Oc3ccc(F)c(F)c3)cc2)CCOCC1 [Example 56, 4-[[4-(3,4-difluorophenoxy)-phenyl]sulfonyl]tetrahydro-N-hydroxy-2H-pyran-4-carboxamide]	0.00015	< 0.1	1.5	
O=C(NCC(F)(F)F)C1CCN(c2ccc(S(=O)(=O)C3(C(=O)NO)CCOCC3)cc2)CC1 [Example 180]	0.004	128	5	
CS(=O)(=O)N1CCC(C(=O)NO)(S(=O)(=O)c2ccc(Oc3ccccc3)cc2)CC1 [Example 18]				IC50 (recombinant human MMP-13): 0.0005 µM; IC50 (recombinant human MMP-2; MMP-2 IC50 (nM)): 0.3 nM; IC50 (recombinant human MMP-1; Inhibition Table A): 0.8 µM
CCOC(=O)N1CCN(c2ccc(S(=O)(=O)C3(C(=O)NO)CCOCC3)cc2)CC1 [Example 126]	0.01	11.3	8	
C#CCN1CCC(Oc2ccc(S(=O)(=O)C3(C(=O)NO)CCOCC3)cc2)CC1 [Example 106, Tetrahydro-N-hydroxy-4-[[4-[[1-(2-propynyl)-4-piperidinyl]-oxy]phenyl]sulfonyl]-2H-pyran-4-carboxamide, Monohydrochloride]	0.0121	27.1	> 10	
O=Cc1cccc(-c2ccc(S(=O)(=O)C3(C(=O)NO)CCOCC3)cc2)c1 [Example 228]	< 0.001	< 1	0.6	
COc1ccccc1N1CCN(c2ccc(S(=O)(=O)C3(C(=O)NO)CCOCC3)cc2)CC1 [Example 128]	0.02	23.8	> 10	
CC(C)N1CCC(C(=O)NO)(S(=O)(=O)c2ccc(Sc3ccccc3)cc2)CC1 [Example 34, N-hydroxy-1-(1-methylethyl)-4-[[4-(phenylthio)phenyl]sulfonyl]-4-piperidinecarboxamide, Monohydrochloride]	0.0012	1.1		IC50 (recombinant human MMP-1): > 10 µM
O=C(NO)C1(S(=O)(=O)c2ccc(N3CCN(CCO)CC3)cc2)CCOCC1 [Example 127]	0.04	37		IC50 (recombinant human MMP-1): > 10 µM
O=C(NO)/C(=C\c1ccccc1)S(=O)(=O)c1ccc(Oc2ccccc2)cc1 [Example 5]				IC50 (recombinant human MMP-13; [1]): 4.8 µM; IC50 (recombinant human MMP-2; [4]): 1800 nM; IC50 (recombinant human MMP-1; Inhibition Table A): > 10 µM
O=C(NO)C1(S(=O)(=O)c2ccc(OC3CCNCC3)cc2)CCOCC1 [Example 67, tetrahydro-N-hydroxy-4-[[4-(4-piperidinyloxy)phenyllsulfonyl]-2H-pyran-4-carboxamide, Monohydrochloride]	0.268	239	1.6	

Compound	IC50 (recombinant human MMP-13; [2]) [µM]	IC50 (recombinant human MMP-2; [3]) [nM]	IC50 (recombinant human MMP-1; Inhibition Table B) [µM]	other results
COC(=O)CCc1ccc(Oc2ccc(S(=O)(=O)C3(C(=O)NO)CCOCC3)cc2)cc1 [Example 102, methyl 4-[4-[(tetrahydro-4-[(hydroxyamino)carbonyl]-2H-pyran-4-yl]sulfonyl]-phenoxy]benzenepropanoate]	0.0002	< 0.1	2	
O=C(NO)C1(S(=O)(=O)c2ccc(-c3ccsc3)cc2)CCOCC1 [Example 215]	< 0.001	< 1	0.25	
O=C(NO)C1(S(=O)(=O)c2ccc(Sc3ccc(F)cc3)cc2)CCNCC1 [Example 22]				IC50 (recombinant human MMP-13; [1]): 0.0012 µM; IC50 (recombinant human MMP-2; [4]): 0.9 nM; IC50 (recombinant human MMP-1; Inhibition Table A): > 10 µM
C=CCN1CCC(C(=O)NO)(S(=O)(=O)c2ccc(Oc3ccc(Cl)c(C)c3)cc2)CC1 [Example 82, 4-[[4-(4-chloro-3-methylphenoxy)phenyljsulfonyl]-N-hydroxy-1-(2-propenyl)-4-piperidinecarboxamide, Monohydrochloride]	0.0003	0.1	4	
CC(C)(C)OC(=O)N1CCC(C(=O)NO)(S(=O)(=O)c2ccc(Oc3ccccc3)cc2)CC1 [Example 3]				IC50 (recombinant human MMP-13; [1]): 0.0003 µM; IC50 (recombinant human MMP-2; [4]): 0.2 nM; IC50 (recombinant human MMP-1; Inhibition Table A): 1.14 µM
NCCc1ccc(Oc2ccc(S(=O)(=O)C3(C(=O)NO)CCS(=O)(=O)CC3)cc2)cc1 [Example 54, 4-[[4-[4-(2-aminoethyl))-phenoxy]phenyl]sulfonyl]tetrahydro-N-hydroxy-2H-thiopyran-4-carboxamide 1,1-dioxide Monohydrochloride]	0.12	60	> 10	
O=C(NO)C1(S(=O)(=O)c2ccc(Sc3ccccc3)cc2)CC[S+]([O-])CC1 (stereo not drawn) [Example 113]	0.004	0.9	> 10	
O=C(NO)C1(S(=O)(=O)c2ccc(-c3cccc4ccccc34)cc2)CCOCC1 [Example 224]	0.0167	18.1	> 10	
C#CCN1CCC(C(=O)NO)(S(=O)(=O)c2ccc(Oc3ccc(-n4ccnc4)cc3)cc2)CC1 [Example 23]				IC50 (recombinant human MMP-13; [1]): 0.0002 µM; IC50 (recombinant human MMP-2; [4]): < 0.1 nM; IC50 (recombinant human MMP-1; Inhibition Table A): 2.28 µM
O=C(NO)C1(S(=O)(=O)c2ccc(F)cc2)CCOCC1 [Example 66, 4-[(4-fluorophenyl)-sulfonyl]tetrahydro-N-hydroxy-2H-pyran-4-carboxamide]	36	4590	> 10	
O=C(NO)C1(S(=O)(=O)c2ccc(Sc3ccccc3)cc2)CCSCC1 [Example 49, tetrahydro-N-hydroxy-4-[[4-(phenylthio)phenyl]sulfonyl]-2H-thiopyran-4-carboxamide]	0.09	76.9	> 10	
O=C(NO)C1(S(=O)(=O)c2ccc(Sc3ccccc3)cc2)CCNCC1 [Example 86, 4-[[4-(phenylthio)-phenyl]-sulfonyl]-N-hydroxy-4-piperidine-carboxamide, Monohydrochloride]	0.0035	2.5	> 10	
Cc1ccccc1-c1ccc(S(=O)(=O)C2(C(=O)NO)CCOCC2)cc1 [Example 225]	0.07	54	> 10	
O=C(NCc1ccc(F)cc1)C1CCN(c2ccc(S(=O)(=O)C3(C(=O)NO)CCOCC3)cc2)CC1 [Example 197]	0.008	145	7	
O=C(NO)C1(S(=O)(=O)c2ccc(Sc3ccccc3)cc2)CCS(=O)(=O)CC1 [Example 52]	0.0059	2.7	> 10	
